Results published in patent US12667568B2, “Compositions and methods for the treatment and diagnosis of cancer” (The General Hospital Corporation, priority 2020, dated 2026).

What was measured:
[1] = test system: ZR-75-30, MCF7, HCC-1954, HCC-1937, MDA-MB-468 and MDA-MB-231; assay: Colony formation assay with Olaparib in six breast cancer cell lines; assay type: cell-based
Description: FIGS. 10A-10E show SYCP2 promotes RAD51 localization to DSBs independently of BRCA1. (FIG. 10A) The schematic mechanism of HR in the absence of BRCA1/2 for RAD51 loading with the help of SYCP2. RAD51 IRIF in BRCA1 mutant breast cancer cell lines after 2 Gy IR and 1 hour recovery with or without siSYCP2. Numbers of RAD51 foci per cell in siCtrl and siSYCP2 were quantified (n=20). The frameshift mutation of BRCA1 in cell line HCC1954 and HCC1937 is listed in the right. (FIG. 10B) The frequency of BRCA1 and SYCP2 IRIF colocalizing with γ-H2AX in U2OS cells after 2 Gy IR and recovery of 1 hour. Western blot of BRCA1 and SYCP2 knockdown and RAD51 expression level was shown in the left. (FIG. 10C) Comparison of SYCP2 RNA expression (CCLE database) in BRCA1/2 mutant and wildtype breast cancer cell lines. The analysis is normalized to Fragments Per Kilobase Million (FPKM). (FIG. 10D) Plot of correlation between SYCP2 expression and IC50 of Olaparib in groups of BRCA WT vs. mutant cells (left), high BRCA1 vs. low BRCA1 (right). p values and r values were determined by using Pearson correlated analysis. […]
Approximately 400 cells were replanted on 6-cm dishes 48 h after siRNA transfection. […] Colonies were stained with 0.3% crystal violet/methanol and counted 9 days after treatments. Each experiment was performed at least 3 times and the standard errors were calculated and indicated in the graphs. […]

[2] = test system: MD-MBA-231 xenograft tumors; assay: MD-MBA-231 xenograft with PARPi; assay type: in vivo, BALB/c nude mice
Description: FIGS. 9A-9G show SYCP2 is required for efficient homologous recombination. (FIG. 9A) Cell survival rate of HeLa and MDAMB231 via colony forming assay with the treatment of […], 4 μm, 6 μM, 8 μM, 16 μM of Olaparib (n=3, mean+/−S.D.). Western blot of SYCP2 overexpression in HeLa and MDA-MB-231 is shown in the left. (FIG. 9B) Cell survival rate of HeLa via colony forming assay with the treatment of 1 μM, 2 μm, 3 μM of Olaparib (n=3, mean+/−S.D.). Western blot of SYCP2 knockdown in Hela is shown in the left. (FIG. 9C) Scheme of Xenograft design using intraperitoneal injection of MBA-MD-231 into successful developed mouse model with virus-associated SYCP2 knockdown and control groups is shown in the left. PARPi was injected every 2 days after day 7. The graph is shown the recorded tumor size of each tested group with PARPi treatment or saline at each treatment day. (FIG. 9D). Numbers of SYCP2 IR induced foci (IRIF) colocalizing with γH2AX in MDAMB231 and HeLa cells. Cells were fixed and counted for foci numbers after 2 Gy IR followed up indicated recovery time (t=0 hr, 12 hr, 24 hr, and 48 hr) (n=30, mean+/−S.D). (FIG. 9E). […] Fold increase of mean intensity at sites of irradiation compared to mean intensity of nucleus expression is quantified (n=5, mean+/−SD). […] Numbers of RAD51 IRIF in siCtrl and siSYCP2 treated MDAMB231 and U2OS cells after 2 Gy IR and 1 hour recovery were counted (n=20, +/SD). […]

[3] = test system: HST578, MBAMD231, HCC1937, HCC1954 cancer cells; assay: Cell survival assay, TRDMT1i alone (Example 19); assay type: cell-based; settings: HCC1954, HRD, high SYCP2
Description: FIGS. 14A-14C show TRDMT1i alone reduce cancer cell survival in a dose-dependent manner. (FIG. 14A) Survival rate of HR proficient (HR+) HST578 cancer cells with and without siBRCA1 and/or TRDMT1i YW-1842 at indicated dose. The survival rate of these cells was analyzed (n=3, Mean±SD). (FIG. 14B) Survival rate of MBAMD231 (HR+) and HCC1937 (HRD) cells. The survival rate of these cells was analyzed (n=3, Mean±SD). (FIG. 14C) Cell survival rate in different cancer cell lines via colony-forming assay with the treatment of Imatinib at indicated dose (n=3, mean+/−S.D.). Cell lines are listed in order with the expression level from SYCP2high to SYCP2low.
Cells were seeded in each 6-cm dish and cultured as described above. They were treated with drugs with indicated dose in medium after seeding. After 7-10 days, colonies were fixed and stained with 0.3% crystal violet in methanol, and the number of colonies was counted manually.

[4] = test system: SKOV3 subcutaneous xenograft tumors; assay: SKOV3 xenograft with Cisplatin; assay type: in vivo, BALB/c nude mice; settings: Cisplatin 5 mg/kg into tumor twice per week for 3 weeks, Lv-shTRDMT1 versus Lv-NC
Description: FIGS. 5A-5E show reduced TRDMT1 expression renders Cisplatin sensitization in vivo. (FIG. 5A) Lv-shTRDMT1 or Lv-NC transfected SKOV3 cells were subcutaneously injected into BALB/c nude mice, a week after injection, Cisplatin (5 mg/kg) or saline was injected into the center of the xenograft tumors twice per week for 3 consecutive weeks. (FIG. 5B) Representative images of tumors in xenografts transfected with LV-shTRDMT1/LV-NC with saline or Cisplatin treatment. (FIG. 5C) Tumor size of SKOV3 subcutaneous xenograft tumors (n=6, Mean±SD). (FIG. 5D) WB for TRDMT1 in tumor tissues collected from mice in each group (Tissues from six tumors in the same group were mixed into one sample). (FIG. 5E) IHC of TRDMT1 and KI-67 expression in ovarian cancer tissues of patients who were platinum-sensitive (PFS>6) and —resistant (PFS<6) Staining was assessed and scored on a scale of 0 (<5% staining) to 4 (>75% staining) in G. Quantification of IHC staining (n=38, PFS>6, n=24; PFS<6, n=14) was shown. […]
When mice developed palpable tumors (about a week after injection), cDDP (5 mg/kg) or saline were then injected into the center of the xenograft tumors twice per week for 3 consecutive weeks. […] PFS was calculated from the time of surgery to the time of progression or recurrence. […]

[5] = test system: breast tumors; assay: Sacituzumab Govitecan (IMMU-132) clinical trial, outcome by SYCP2 IHC; assay type: in vivo; settings: 16 patients
Description: FIGS. 13A-13D show high SYCP2 expression associates with poor prognosis and drug resistance in patients. (FIG. 13A). Summarization of subtypes of breast cancer patients in a Sacituzumab Govitecan (IMMU-132) clinical trial group. Patients were divided to high SYCP2 group and low SYCP2 group by IHC of SYCP2. IHC staining of SYCP2 expression in patient tumor tissues from the IMMU-132 clinical trial group. Representative images were shown. Cutoff value is median. Numbers of patients' response as Partial Response (PR) or Stable Disease (SD) in low SYCP2 group and high SYCP2 group in IMMU clinical trial are shown. (FIG. 13B) Kaplan-Meier curves of patients' overall survival and progression free survival in FIG. 13A. (FIG. 13C) Overall survival curves of 1095 patients from TCGA. Cutoff value is median. R value and p value were calculated by COX survival analysis. […]
The collected tumor specimens and adjacent normal tissue samples were fixed in 4% parafoiinaldehyde, stored in PBS. After sucrose infiltration, samples were filled with OTC and ready for cryosection. […] After deparaffinization and rehydration, sections were blocked and incubated with antibody against SYCP2 (PAS-67554, 1:20), Ki-67 (sc-23900, Santa Cruz, 1:200), and then detected using the Dako Envision two-step method of immunohistochemistry (Carpinteria, CA, USA). […] All IHC staining was scored independently by 2 pathologists. […]

O=C(c1cc(Cc2n[nH]c(=O)c3ccccc23)ccc1F)N1CCN(C(=O)C2CC2)CC1 [Olaparib]
PARPi sensitivity, BRCA1 mutant versus non-mutant ([1]; among four cell lines expressing high levels of SYCP2): more sensitive
PARPi sensitivity, low versus high SYCP2 ([1]; among four cell lines without BRCA mutations): much more sensitive
tumor growth, control tumors ([2]; siControl tumors, intraperitoneal, every 2 days after day 7, 23 days): reduced the growth of control tumors
tumor growth, SYCP2 knockout tumors ([2]; siSYCP2 tumors versus control tumors): reduced the growth of SYCP2 knockout tumors more than control tumors
response of HCC1954 to PARPi [3]: relatively resistant

N.N.[Cl][Pt][Cl] [cisplatin]
xenograft tumor size, Lv-shTRDMT1 tumors [4]: grew statistically smaller

Sacituzumab Govitecan
response rate in patients with SYCP2high tumors ([5]; SYCP2high versus SYCP2low by IHC): reduced rate of partial response (PR) but an increased rate of stable disease (SD)
survival in patients with high SYCP2 expression ([5]; high SYCP2 expression): shorter overall survival and progression-free survival
